Measurements as given in patent publication US9321764B2, “Dihydro-pyrrolopyridinone inhibitors” (AbbVie Inc., priority 2013, dated 2016).

What was measured:
BRD4 (BDII_E352-M457) = target: T1, BRD4 (BDII_E352-M457) (Homo sapiens, UniProt O60885); assay: TR-FRET bromodomain binding assay, second bromodomain of BRD4; conditions: His-tagged BD2, 30 nM Alexa647 probe; TR-FRET protocol A-E given per row
T1 construct: proliferation; Protocol; made in house
Procedure, shortened: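 His-tagged BRD4 BD2 ([…]) competed against an Alexa647-labelled BET-inhibitor probe in TR-FRET. Buffer was 20 mM sodium phosphate pH 6.0, 50 mM NaCl, 1 mM EDTA, 0.01% Triton X-100, 1 mM DTT, with method D DMSO series of 2.5 mM–800 nM (stock range). IC50 from 4-parameter fit, Ki from probe Kd and concentration.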

BRD4 (BDI_K57-E168) = target: T2, BRD4 (BDI_K57-E168) (Homo sapiens, UniProt O60885); assay: TR-FRET bromodomain binding assay, first bromodomain of BRD4; conditions: His-tagged BD1, 100 nM Alexa647 probe; TR-FRET protocol A-E given per row
T2 construct: BD1: amino acids K57-E168; made in house
Procedure, shortened: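 Ki values come from IC50s (4-parameter logistic) corrected for probe Kd and concentration, normalised to no-compound and 1 μM unlabelled probe controls. Probe displacement by TR-FRET used 8 nM BD1 (K57-E168), 100 nM Alexa647 probe, 1 nM Eu-anti-His, 20 mM phosphate pH 6.0, 2% DMSO, 1 h, room temperature.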

[1] = tested on: breast cancer cell line MX-1; assay: MX-1 cell line proliferation assay; format: cell-based; conditions: Homo sapiens, MX1, 72 h, MX-1 cells, 3-day proliferation assay, Cell Titer Glo; read-out: Cellular proliferation EC50
Description: The impact of compounds of the Examples on cancer cell proliferation was determined using the breast cancer cell line MX-1 (ATCC) in a 3-day proliferation assay and the data are reported in Table 1. MX-1 cells were maintained in RPMI 1640 medium (Sigma) supplemented with 10% FBS at 37° C. and an atmosphere of 5% CO2. For compound testing, MX-1 cells were plated in 96-well black bottom plates at a density of 5000 cells/well in 90 μL of culture media and incubated at 37° overnight to allow cell adhesion and spreading. Compound dilution series were prepared in DMSO via a 3-fold serial dilution from 3 mM to 0.1 μM. The DMSO dilution series were then diluted 1:100 in phosphate buffered saline, and 10 μL of the resulted solution were added to the appropriate wells of the MX-1 cell plate. The final compound concentrations in the wells were 3, 1, 0.3, 0.1, 0.03, 0.01, 0.003, 0.001, 0.0003 and 0.0001 μM.
Luminescence readings from the Cell Titer Glo assay were normalized to the DMSO treated cells and analyzed using the GraphPad Prism software with sigmoidal curve fitting to obtain EC50s. The minimum significant ratio (MSR) was determined to evaluate assay reproducibility (Eastwood et al., (2006) J Biomol Screen, 11: 253-261).

Compound: CCS(=O)(=O)Nc1cnc(Oc2ccc(F)cc2F)c(-c2cn(C)c3c(=O)[nH]ccc23)c1 [Example 184, N-[6-(2,4-difluorophenoxy)-5-(1-methyl-7-oxo-6,7-dihydro-1H-pyrrolo[2,3-c]pyridin-3-yl)pyridin-3-yl]ethanesulfonamide]
- Ki (BRD4 (BDII_E352-M457)): 0.00472 µM
- Ki (BRD4 (BDI_K57-E168)): 0.00531 µM
- EC50 [1]: 0.309 µM

Compound: Cn1cc(-c2cc(NC(=O)c3cc(Cl)ccc3Cl)ccc2Oc2ccc(F)cc2F)c2cc[nH]c(=O)c21 [Example 148, 2,5-dichloro-N-[4-(2,4-difluorophenoxy)-3-(1-methyl-7-oxo-6,7-dihydro-1H-pyrrolo[2,3-c]pyridin-3-yl)phenyl]benzamide]
- Ki (BRD4 (BDII_E352-M457)): 0.15 µM
- Ki (BRD4 (BDI_K57-E168)): 0.0651 µM
- EC50 [1]: 0.17 µM

Compound: CNS(=O)(=O)Cc1ccc(Oc2ccc(F)cc2F)c(-c2cn(C)c3c(=O)[nH]ccc23)c1 [Example 100, 1-[4-(2,4-difluorophenoxy)-3-(1-methyl-7-oxo-6,7-dihydro-1H-pyrrolo[2,3-c]pyridin-3-yl)phenyl]-N-methylmethanesulfonamide]
- Ki (BRD4 (BDII_E352-M457)): 0.0048 µM
- Ki (BRD4 (BDI_K57-E168)): 0.0041 µM
- EC50 [1]: 0.009 µM

Compound: Cc1cccnc1CNc1ccc(Oc2ccc(F)cc2F)c(-c2cn(C)c3c(=O)[nH]ccc23)c1 [Example 169, 3-[2-(2,4-difluorophenoxy)-5-{[(3-methylpyridin-2-yl)methyl]amino}phenyl]-1-methyl-1,6-dihydro-7H-pyrrolo[2,3-c]pyridin-7-one]
- Ki (BRD4 (BDII_E352-M457)): 0.107 µM
- Ki (BRD4 (BDI_K57-E168)): 0.0265 µM
- EC50 [1]: 0.132 µM

Compound: CCS(=O)(=O)Nc1ccc(O[C@H]2CC[C@@H](OC)CC2)c(-c2cn(C)c3c(=O)[nH]ccc23)c1 [Example 9, N-{4-[(cis-4-methoxycyclohexyl)oxy]-3-(1-methyl-7-oxo-6,7-dihydro-1H-pyrrolo[2,3-c]pyridin-3-yl)phenyl}ethanesulfonamide]
- Ki (BRD4 (BDII_E352-M457)): 0.029 µM
- Ki (BRD4 (BDI_K57-E168)): 0.012 µM
- EC50 [1]: 0.128 µM

Compound: Cn1cc(-c2cc(S(N)(=O)=O)ccc2Oc2ccc(F)cc2F)c2cc[nH]c(=O)c21 [Example 51, 4-(2,4-difluorophenoxy)-3-(1-methyl-7-oxo-6,7-dihydro-1H-pyrrolo[2,3-c]pyridin-3-yl)benzenesulfonamide]
- Ki (BRD4 (BDII_E352-M457)): 0.062 µM
- Ki (BRD4 (BDI_K57-E168)): 0.047 µM
- EC50 [1]: 0.201 µM

Compound: CCS(=O)(=O)Nc1ccc(OC2CCC(F)(F)CC2)c(-c2cn(C)c3c(=O)[nH]ccc23)c1 [Example 8, N-{4[(4,4-difluorocyclohexyl)oxy]-3-(1-methyl-7-oxo-6,7-dihydro-1H-pyrrolo[2,3-c]pyridin-3-yl)phenyl}ethanesulfonamide]
- Ki (BRD4 (BDII_E352-M457)): 0.0064 µM
- Ki (BRD4 (BDI_K57-E168)): 0.0016 µM
- EC50 [1]: 0.033 µM

Compound: CCS(=O)(=O)Nc1ccc(Oc2ccc(F)cc2F)c(-c2cn(C)c3c(=O)[nH]c(C(=O)NCC4CCCC4)cc23)c1 [Example 195, N-(cyclopentylmethyl)-3-{2-(2,4-difluorophenoxy)-5-[(ethylsulfonyl)amino]phenyl}-1-methyl-7-oxo-6,7-dihydro-1H-pyrrolo[2,3-c]pyridine-5-c arboxamide]
- Ki (BRD4 (BDII_E352-M457)): 0.0127 µM
- Ki (BRD4 (BDI_K57-E168)): 0.0104 µM
- EC50 [1]: 0.162 µM

Compound: Cn1cc(-c2cc(S(C)(=O)=O)ccc2OCCC(C)(C)C)c2cc[nH]c(=O)c21 [Example 40, 3-[2-(3,3-dimethylbutoxy)-5-(methylsulfonyl)phenyl]-1-methyl-1,6-dihydro-7H-pyrrolo[2,3-c]pyridin-7-one]
- Ki (BRD4 (BDII_E352-M457)): 0.064 µM
- Ki (BRD4 (BDI_K57-E168)): 0.023 µM
- EC50 [1]: 0.087 µM

Compound: Cn1cc(-c2cc(CS(=O)(=O)N3CCCCC3)ccc2Oc2ccc(F)cc2F)c2cc[nH]c(=O)c21 [Example 103, 3-{2-(2,4-difluorophenoxy)-5-[(piperidin-1-ylsulfonyl)methyl]phenyl}-1-methyl-1,6-dihydro-7H-pyrrolo[2,3-c]pyridin-7-one]
- Ki (BRD4 (BDII_E352-M457)): 0.0049 µM
- Ki (BRD4 (BDI_K57-E168)): 0.0084 µM
- EC50 [1]: 0.089 µM

Compound: Cn1cc(-c2cc(S(C)(=O)=O)ccc2OCC(C)(C)C)c2cc[nH]c(=O)c21 [Example 27, 3-[2-(2,2-dimethylpropoxy)-5-(methylsulfonyl)phenyl]-1-methyl-1,6-dihydro-7H-pyrrolo[2,3-c]pyridin-7-one]
- Ki (BRD4 (BDII_E352-M457)): 0.032 µM
- Ki (BRD4 (BDI_K57-E168)): 0.008 µM
- EC50 [1]: 0.176 µM

Compound: Cn1cc(-c2cc(S(C)(=O)=O)ccc2NCC2C[C@@H]3CC[C@H]2C3)c2cc[nH]c(=O)c21 (stereo partly drawn) [Example 71, 3-[2-{[(1S,4R)-bicyclo[2.2.1]hept-2-ylmethyl]amino}-5-(methylsulfonyl)phenyl]-1-methyl-1,6-dihydro-7H-pyrrolo[2,3-c]pyridin-7-one]
- Ki (BRD4 (BDII_E352-M457)): 0.285 µM
- Ki (BRD4 (BDI_K57-E168)): 0.197 µM
- EC50 [1]: 0.255 µM

Compound: CC(C)S(=O)(=O)Nc1ccc(Oc2ccc(F)cc2F)c(-c2cn(C)c3c(=O)[nH]ccc23)c1 [Example 3, N-[4-(2,4-difluorophenoxy)-3-(1-methyl-7-oxo-6,7-dihydro-1H-pyrrolo[2,3-c]pyridin-3-yl)phenyl]propane-2-sulfonamide]
- Ki (BRD4 (BDII_E352-M457)): 0.043 µM
- Ki (BRD4 (BDI_K57-E168)): 0.026 µM
- EC50 [1]: 0.161 µM

Compound: COc1ccccc1S(=O)(=O)NCc1ccc(Oc2ccc(F)cc2F)c(-c2cn(C)c3c(=O)[nH]ccc23)c1 [Example 130, N-[4-(2,4-difluorophenoxy)-3-(1-methyl-7-oxo-6,7-dihydro-1H-pyrrolo[2,3-c]pyridin-3-yl)benzyl]-2-methoxybenzenesulfonamide]
- Ki (BRD4 (BDII_E352-M457)): 1.15 µM
- Ki (BRD4 (BDI_K57-E168)): 0.247 µM
- EC50 [1]: > 3 µM

Compound: Cn1cc(-c2ccccc2Oc2ccccc2)c2cc[nH]c(=O)c21 [Example 1, 1-methyl-3-(2-phenoxyphenyl)-1,6-dihydro-7H-pyrrolo[2,3-c]pyridin-7-one]
- Ki (BRD4 (BDII_E352-M457)): 0.313 µM
- Ki (BRD4 (BDI_K57-E168)): 0.085 µM
- EC50 [1]: 0.584 µM

Compound: Cn1cc(-c2cc(NCc3cn4c(n3)CCC4)ccc2Oc2ccc(F)cc2F)c2cc[nH]c(=O)c21 [Example 176, 3-{2-(2,4-difluorophenoxy)-5-[(6,7-dihydro-5H-pyrrolo[1,2-a]imidazol-2-ylmethyl)amino]phenyl}-1-methyl-1,6-dihydro-7H-pyrrolo[2,3-c]pyridin-7-one]
- Ki (BRD4 (BDII_E352-M457)): 0.101 µM
- Ki (BRD4 (BDI_K57-E168)): 0.0423 µM
- EC50 [1]: 0.289 µM

Compound: CCS(=O)(=O)Nc1ccc(OCC2CC2)c(-c2cn(C)c3c(=O)[nH]ccc23)c1C [Example 14, N-[4-(cyclopropylmethoxy)-2-methyl-3-(1-methyl-7-oxo-6,7-dihydro-1H-pyrrolo[2,3-c]pyridin-3-yl)phenyl]ethanesulfonamide]
- Ki (BRD4 (BDII_E352-M457)): 1.34 µM
- Ki (BRD4 (BDI_K57-E168)): 0.073 µM
- EC50 [1]: 0.506 µM

Compound: Cn1cc(-c2cc(CS(=O)(=O)c3ccccc3)ccc2Oc2ccc(F)cc2F)c2cc[nH]c(=O)c21 [Example 58, 3-{2-(2,4-difluorophenoxy)-5-[(phenylsulfonyl)methyl]phenyl}-1-methyl-1,6-dihydro-7H-pyrrolo[2,3-c]pyridin-7-one]
- Ki (BRD4 (BDII_E352-M457)): 0.088 µM
- Ki (BRD4 (BDI_K57-E168)): 0.072 µM
- EC50 [1]: 0.057 µM

Compound: Cn1cc(-c2cc(NC(=O)Cc3cccc(Oc4ccccc4)c3)ccc2Oc2ccc(F)cc2F)c2cc[nH]c(=O)c21 [Example 154, N-[4-(2,4-difluorophenoxy)-3-(1-methyl-7-oxo-6,7-dihydro-1H-pyrrolo[2,3-c]pyridin-3-yl)phenyl]-2-(3-phenoxyphenyl)acetamide]
- Ki (BRD4 (BDII_E352-M457)): 0.828 µM
- Ki (BRD4 (BDI_K57-E168)): 1.76 µM
- EC50 [1]: 1.59 µM

Compound: CCS(=O)(=O)C(C)c1ccc(Oc2ccc(F)cc2F)c(-c2cn(C)c3c(=O)[nH]ccc23)c1 (single isomer, unassigned) [Example 56]
- Ki (BRD4 (BDII_E352-M457)): 0.018 µM
- Ki (BRD4 (BDI_K57-E168)): 0.013 µM
- EC50 [1]: 0.036 µM
